According to patent US11590158B2, “Pharmaceutical compositions of lipoic acid choline ester salts and methods of treatment using same” (Novartis AG, priority 2020, dated 2023):
Entries after “also recorded” stand apart in the source; their conditions may differ. Where a name gives a salt, the structure may show the parent alone. Read-outs that look alike come from different tables or passages of the source.

How the values were obtained:
[1] = test system: Staphylococcus aureus, Pseudomonas aeruginosa, Escherichia coli, Candida albicans, and Aspergillus brasiliensis; experiment: Preservative efficacy test, overall outcome against USP criteria; format: cell-based; conditions: formulations with cyclodextrin
Procedure: The testing was carried out using the following procedure: Five different challenge organisms were evaluated (Staphylococcus aureus, Pseudomonas aeruginosa, Escherichia coli, Candida albicans, and Aspergillus brasiliensis) were evaluated for each test formulation, and inoculated to a concentration of 10^6 colony forming units per ml (CFU/ml). The microbial suspension was incubated and sampled at 7, 14, 21, and 28 days. At the time of sampling, a sample was diluted 10-fold into tryptase soy broth medium, and 100 μl plated in growth agar plates to count survivors. The survivor count was used to determine log reduction. The preservative efficacy test criteria for multidose pharmaceutical compositions under US Pharmacopoeia standards are as follows. [table]

[2] = Hygroscopicity (exposure to RH, DVS); format: physicochemical; conditions: for Hygroscopicity / Hygroscopicity, water uptake: DVS; for Hygroscopicity: >70% RH; for Hygroscopicity, water uptake: until 70% RH
[3] = Hygroscopicity (exposure to RH, DVS); format: physicochemical; conditions: for Hygroscopicity: solid salt, ambient conditions; for Hygroscopicity upon exposure: 58% RH for one day
Text: It is deliquescent upon exposure to 58% RH for one day. In DVS measurement, LACE chloride absorbs 18.6% moisture from 0% RH to 50% RH. The DVS isotherm is irreversible. It is amorphous at ambient but crystalline under 0% RH by Cryo-XRPD.

[4] = Equilibration of LACE chloride in solvents (solubility test); format: physicochemical; conditions: 100 mg in 1 mL, 25° C. for 7 days
Text: The mixture was equilibrated for 7 days, with visual observations at days 1, 2, and 7. If a slurry resulted, it was filtered and clear solutions were either cooled or evaporated.

[5] = Stability in aqueous solutions or suspensions; format: physicochemical
Text: At pH 4.7 buffer solution about 4% degradation is observed.

[6] = Stability in organic solutions or suspensions; format: physicochemical; conditions: 40° C. for 1 week
[7] = Photostability; format: physicochemical
[8] = Solid state stability
[9] = Excipient compatibility
Procedure: (§1) LACE salts were dissolved in each of the following excipients: 0.01% benzalkonium chloride, 20 mM acetate buffer, 20 mM citrate buffer, 1% Na-carboxymethyl cellulose, 1% hydroxypropylmethyl cellulose and 0.01% Na-ethylene diamine tetraacetic acid.

[10] = 1 week
Procedure: as §1

[11] = test system: rabbit eye; experiment: Acute rabbit ocular tolerability study; format: in vivo; conditions: rabbit left eye dosed 6 times, one drop about 30 microliter, about 1 hour apart
Procedure: A number of excipients were explored to determine which excipients would reduce the formation of associative species. Acute rabbit ocular tolerability studies were performed to test the ocular tolerability of LACE tosylate with various excipients. The study design involved three male rabbits per arm. The rabbits' left eye was dosed 6 times with one drop each time, about 1 hour apart, administering about 30 microliter per drop. The right eye was not dosed and served as a control.

[12] = pH 4.7 buffer solution, 40° C. for 1 week
[13] = other solvents (EtOAC, acetone, IPA and THF)
[14] = 5% solutions in aqueous excipients (0.01% BAC, 20 mM acetate, 20 mM citrate, 1% Na-CMC, 1% HPMC, 0.01% Na-EDTA), 40° C. for 2 weeks
[15] = same excipients, 40° C. for 2 weeks
[16] = same excipients, 40° C./75% RH for 2 weeks

N=C(N)NC(=N)N [Biguanide]
efficacy as a preservative in LACE tosylate formulations [1]: not found to be efficacious

C[N+](C)(C)CCOC(=O)CCCCC1CCSS1.Cc1ccc(S(=O)(=O)[O-])cc1 (stereo not shown) [Form A, lipoic acid choline ester tosylate]
Hygroscopicity [2]: deliquescent >70% RH
Hygroscopicity, water uptake [2]: 0.64% water uptake until

C[N+](C)(C)CCOC(=O)CCCCC1CCSS1.Cc1ccc(S(=O)(=O)[O-])cc1 (stereo not shown) [Form B, lipoic acid choline ester tosylate]
Hygroscopicity [2]: deliquescent >70% RH
Hygroscopicity, water uptake [2]: 0.55% water uptake until

C[N+](C)(C)CCOC(=O)CCCCC1CCSS1.[Br-] (stereo not shown) [LACE bromide]
Hygroscopicity [3]: hygroscopic

C[N+](C)(C)CCOC(=O)CCCC[C@@H]1CCSS1.[Cl-] [LACE-Cl, lipoic acid choline ester chloride]
Comments (equilibration in solvent) ([4]; 2-Me-THF): sticky solid
Comments (equilibration in solvent) ([4]; 2 Methyl 2 butanone): Clear solution after 7 days
Comments (equilibration in solvent) ([4]; ACN): Clear solution after 7 days
Comments (equilibration in solvent) ([4]; Acetic acid): almost dissolved
Comments (equilibration in solvent) ([4]; Acetone): initial suspension, with particles stuck on wall
Comments (equilibration in solvent) ([4]; Anisole): sticky solid
Comments (equilibration in solvent) ([4]; Benzyl alcohol): Clear solution after 7 days
Comments (equilibration in solvent) ([4]; Chloroform): clear solution that yielded an oil after
Comments (equilibration in solvent) ([4]; Cumene): undissolved solid after 7 days
Comments (equilibration in solvent) ([4]; Cyclohexane): undissolved solid after 7 days
Comments (equilibration in solvent) ([4]; DCM): Clear solution after 7 days
Comments (equilibration in solvent) ([4]; Diethyl ether): undissolved solid after 7 days
Comments (equilibration in solvent) ([4]; Dioxane): initial suspension, with particles stuck on wall
Comments (equilibration in solvent) ([4]; EtOAc): suspension
Comments (equilibration in solvent) ([4]; EtOH): Clear solution after 7 days
Comments (equilibration in solvent) ([4]; Ethyl formate): suspension
Comments (equilibration in solvent) ([4]; IPAc): undissolved solid after 7 days
Comments (equilibration in solvent) ([4]; MEK): initial suspension, with particles stuck on wall
Comments (equilibration in solvent) ([4]; MTBE): initial suspension, with particles stuck on wall
Comments (equilibration in solvent) ([4]; MeOH): Clear solution after 7 days
Comments (equilibration in solvent) ([4]; Nitromethane): Clear solution after 7 days
Comments (equilibration in solvent) ([4]; Petroleum ether): undissolved solid after 7 days
Comments (equilibration in solvent) ([4]; Propylene glycol): Clear solution after 7 days
Comments (equilibration in solvent) ([4]; Pyridine): almost dissolved
Comments (equilibration in solvent) ([4]; THF): initial suspension turning sticky
Comments (equilibration in solvent) ([4]; Toluene): sticky solid
Comments (equilibration in solvent) ([4]; Water): Clear solution after 7 days
Comments (equilibration in solvent) ([4]; Xylene): undissolved solid after 7 days
degradation [5, 12]: about 4%
degradation ([6]; methanol and ethanol): complete degradation
degradation [6, 13]: severe degradation
photostability, degradation ([7]; amber vial): ~5%
photostability, physical form ([7]; amber vial): becomes sticky
photostability, degradation ([7]; clear vial): severe degradation and color change
photostability, physical form ([7]; clear vial): becomes sticky
Hygroscopicity upon exposure [3]: deliquescent
moisture absorbed in DVS ([3]; from 0% RH to 50% RH): 18.6%
Hygroscopicity [3]: highly hygroscopic
degradation ([8]; 40° C. 75% RH for 1 week): approximately 7%
physical form ([8]; 40° C. 75% RH for 1 week): becomes sticky mass
degradation ([8]; 40° C. for 1 week): approximately 7%
solid state stability / physical form ([8]; 40° C. for 1 week): becomes sticky mass
behaviour on handling / exposure at ambient conditions [8]: not suitable for handling under normal conditions
degradation [9, 14]: about 5%
degradation ([9]; in Na-CMC, alanine and histidine, 25° C. for 1 week): 2-3%
degradation [9, 15]: higher degradation
degradation [9, 16]: high-severe degradation
degradation ([9]; with HPMC, 25° C. for 1 week): ~8%
degradation ([9]; with HPβCD, 25° C. for 1 week): 3.35%

C[N+](C)(C)CCOC(=O)CCCCC1CCSS1.[I-] (stereo not shown) [LACE-I, lipoic acid choline ester iodide]
degradation [5, 12]: about 4%
degradation ([6]; methanol and ethanol): complete degradation
degradation [6, 13]: severe degradation
photostability ([7]; amber vial): stable
photostability, physical form ([7]; amber vial): remains the same
photostability, degradation ([7]; clear vial): severe degradation and color change
photostability, physical form ([7]; clear vial): remains unchanged
Hygroscopicity upon exposure [3]: non-hygroscopic
Hygroscopicity by DVS ([3]; DVS): non-hygroscopic
physical form ([8]; 40° C. 75% RH for 1 week): form remains the same
solid state stability / physical form ([8]; 40° C. for 1 week): stable
behaviour on handling / exposure at ambient conditions [8]: changes color; also recorded: discoloration and possibly slow degradation
degradation [9, 14]: about 5%
degradation [9, 15]: higher degradation
degradation [9, 16]: high-severe degradation

C[N+](C)(C)CCOC(=O)CCCCC1CCSS1 (stereo not shown) [LACE-OBs, lipoic acid choline ester besylate]
degradation ([5]; 1 week): 10-99%
degradation ([5]; 1 week, pH 4.7): about 4%
degradation ([6]; methanol and ethanol): complete degradation
degradation [6, 13]: severe degradation
photostability ([7]; amber vial): stable
photostability, physical form ([7]; amber vial): remains the same
photostability, degradation ([7]; clear vial): severe degradation and color change
photostability, physical form ([7]; clear vial): decrease in crystallinity
Hygroscopicity upon exposure [3]: deliquescent
Hygroscopicity [3]: hygroscopic
degradation [10]: < 2%
Hygroscopicity upon exposure ([2]; 58% RH up to 6 hours): non hygroscopic
Hygroscopicity by DVS ([2]; DVS from 50% RH to 90% RH): deliquescent
physical form ([8]; 40° C. 75% RH for 1 week): become sticky
solid state stability / physical form ([8]; 40° C. for 1 week): stable

C[N+](C)(C)CCOC(=O)CCCCC1CCSS1 (stereo not shown) [LACE-OTs, lipoic acid choline ester tosylate]
degradation ([6]; methanol and ethanol): complete degradation
degradation [6, 13]: severe degradation
photostability ([7]; amber vial): stable
photostability, physical form ([7]; amber vial): remains the same
photostability, degradation ([7]; clear vial): severe degradation and color change
photostability, physical form ([7]; clear vial): some amorphous content
Hygroscopicity upon exposure [3]: non-hygroscopic
degradation [10]: < 2%
degradation ([10]; 5 %): 1-3%
moisture absorbed in DVS ([2]; up to 60% RH): less than 2%
physical form ([8]; 40° C. 75% RH for 1 week): become sticky
solid state stability / physical form ([8]; 40° C. for 1 week): stable
behaviour on handling / exposure at ambient conditions [8]: without any degradation

CC(O)CO (stereo not shown) [Propylene Glycol]
Tolerated [11]: No

lipoic acid choline ester besylate [LACE-OBs]
behaviour on handling / exposure at ambient conditions [8]: without any degradation
